The values that follow come from the supplement of paper PMC11208160.
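Further: IS621 recombinase and bridge RNA in Escherichia coli cells.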

The series in a line: recombinant barcode read abundance after kanamycin selection (control-corrected) (log10(CPM+1)); higher = more efficient recombination; sequences stand for … in AGTGCAGAGAAAATCGGCCAGTTTTCTCTGCCTGCAGTCCGCATGCCGT…AGATTTATGCAGCGGACTGCCTTTCTCCCAAAGTGATAAACCGGACAGTATCATGGACCGGTTTTCCCGGTAATCCGTATTTGCAAGGTTGGTTTCACT; site = the 11-nt target. The essentials: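 Targets and IS621 bridge RNA target-binding loops were paired in oligos, each with a promoter, a barcode and the J23119-driven first 104 bridge RNA bases. A vector carrying the remaining 73 bp and a T7-inducible recombinase received these by Gibson cloning, and the pool was co-electroporated into E. coli with a donor plasmid. Duplicate plates contained chloramphenicol/ampicillin LB agar (control) or chloramphenicol/ampicillin/kanamycin with 0.1 mM IPTG. Recombination efficiency comes from averaged, control-corrected counts per million of recombinant-junction barcodes, reported as log10(CPM+1).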
“TAGAATGCTTGGGTTCTAACCTGTTGCCT (site TAGAATGCTAA)”: the “recombinant barcode read abundance (log10)” value was determined as 0.133. In the case of “TAGAATGCTTGGGTTCTAACCTGTTGCCT (site TAGAATGCTAG)” it was 0.921; in that of “TAGACATCTTGGGTTCTAACCTGTTGCTC (site TAGACATCTGA)”, 0.323. As for “TAGACATCTTGGGTTCTAACCTGTTGCTC (site TAGCCATCTGA)”, the “recombinant barcode read abundance (log10)” value was found to be 0.0147. Turning to “TAGACATCTTGGGTTCTAACCTGTTGCTC (site TAGGCATCTGA)”, the “recombinant barcode read abundance (log10)” value was determined as 0.0149.

Regarding “TAGACATCTTGGGTTCTAACCTGTTGCTC (site TAGTCATCTGA)”, the “recombinant barcode read abundance (log10)” value came out at 0.016. Consider “TAGACCTCTTGGGTTCTAACCTGTTGCCT (site AAGACCTCTAG)”, for which the “recombinant barcode read abundance (log10)” value came to 0.113. With “TAGACCTCTTGGGTTCTAACCTGTTGCCT (site TAGACCTCTAG)”, the “recombinant barcode read abundance (log10)” value is 1.86. In the case of “TAGACTACTTGGGTTCTAACCTGTTGCTT (site TAGACTACTAA)” it was 0.0704. In the case of “TAGACTACTTGGGTTCTAACCTGTTGCTT (site TAGACTACTCA)” it was 0.0933.

For “TAGACTACTTGGGTTCTAACCTGTTGCTT (site TAGACTACTGA)”, the “recombinant barcode read abundance (log10)” value was 0.0122. In the case of “TAGACTACTTGGGTTCTAACCTGTTGCTT (site TAGACTACTTA)”, the “recombinant barcode read abundance (log10)” value was 0.137. As for “TAGACTGCTTGGGTTCTAACCTGTTGCCT (site TAGACTGCTAG)”, the figure is 1.04; as for “TAGACTGCTTGGGTTCTAACCTGTTGCCT (site TAGCCTGCTAG)”, 0.224; as for “TAGACTGCTTGGGTTCTAACCTGTTGCCT (site TAGGCTGCTAG)”, 0.107. In the case of “TAGACTGCTTGGGTTCTAACCTGTTGCCT (site TAGTCTGCTAG)” it was 0.451. In the case of “TAGAGGACTTGGGTTCTAACCTGTTGCAG (site TACAGGACTCT)”, the “recombinant barcode read abundance (log10)” value was 0.0593.

As for “TAGAGGACTTGGGTTCTAACCTGTTGCAG (site TAGAGGACTCT)”, the “recombinant barcode read abundance (log10)” value amounted to 2.23. “TAGATCGCTTGGGTTCTAACCTGTTGCAG (site TAGATCGCTCT)”: the “recombinant barcode read abundance (log10)” value turned out to be 1.44. Consider “TAGATCGCTTGGGTTCTAACCTGTTGCAG (site TAGGTCGCTAT)”, for which the “recombinant barcode read abundance (log10)” value is 0.266.

Regarding “TAGCACACTTGGGTTCTAACCTGTTGCCG (site TAGCACACTCG)”, the “recombinant barcode read abundance (log10)” value worked out at 1.51. Take “TAGCACACTTGGGTTCTAACCTGTTGCCG (site TCGCACACTCA)”: the “recombinant barcode read abundance (log10)” value stood at 0.0962.

For “TAGCACCCTTGGGTTCTAACCTGTTGCCC (site TAGCACCCTAG)”, the “recombinant barcode read abundance (log10)” value worked out at 0.681.

On to “TAGCACCCTTGGGTTCTAACCTGTTGCCC (site TAGCACCCTCG)”, for which the “recombinant barcode read abundance (log10)” value came out at 0.642.

“TAGCACCCTTGGGTTCTAACCTGTTGCCC (site TAGCACCCTGG)”: the “recombinant barcode read abundance (log10)” value stood at 1.69. As for “TAGCACCCTTGGGTTCTAACCTGTTGCCC (site TAGCACCCTTG)”, the figure is 0.0312; as for “TAGCAGACTTGGGTTCTAACCTGTTGCCT (site TAGCAGACTAG)”, 1.45.

Consider “TAGCAGACTTGGGTTCTAACCTGTTGCCT (site TAGCCGACTAG)”, for which the “recombinant barcode read abundance (log10)” value was 0.034.

On to “TAGCAGACTTGGGTTCTAACCTGTTGCCT (site TAGCGGACTAG)”, for which the “recombinant barcode read abundance (log10)” value worked out at 0.0243.

As to “TAGCAGACTTGGGTTCTAACCTGTTGCCT (site TAGCTGACTAG)”, the “recombinant barcode read abundance (log10)” value came to 0.0224. In the case of “TAGCATACTTGGGTTCTAACCTGTTGCCG (site TAGCATACTAG)”, the “recombinant barcode read abundance (log10)” value is 0.271. Regarding “TAGCATACTTGGGTTCTAACCTGTTGCCG (site TAGCATACTCG)”, the “recombinant barcode read abundance (log10)” value was determined as 0.861. In the case of “TAGCATACTTGGGTTCTAACCTGTTGCCG (site TAGCATACTGG)”, the “recombinant barcode read abundance (log10)” value came out at 0.06. As for “TAGCATACTTGGGTTCTAACCTGTTGCCG (site TAGCATACTTG)”, the figure is 0.198; as for “TAGCCACCTTGGGTTCTAACCTGTTGCCT (site AAGCCACCTAG)”, 0.151; as for “TAGCCACCTTGGGTTCTAACCTGTTGCCT (site CAGCCACCTAG)”, 0.917. As for “TAGCCACCTTGGGTTCTAACCTGTTGCCT (site GAGCCACCTAG)”, the “recombinant barcode read abundance (log10)” value was 0.0875. Regarding “TAGCCACCTTGGGTTCTAACCTGTTGCCT (site TAGCCACCTAG)”, the “recombinant barcode read abundance (log10)” value was determined as 1.94.

With “TAGCCGACTTGGGTTCTAACCTGTTGCCT (site TAGCAGACTAG)”, the “recombinant barcode read abundance (log10)” value is 0.181. Regarding “TAGCCGACTTGGGTTCTAACCTGTTGCCT (site TAGCCGACTAG)”, the “recombinant barcode read abundance (log10)” value amounted to 1.59. As for “TAGCCGACTTGGGTTCTAACCTGTTGCCT (site TAGCGGACTAG)”, the figure is 0.251. As to “TAGCCGACTTGGGTTCTAACCTGTTGCCT (site TAGCTGACTAG)”, the “recombinant barcode read abundance (log10)” value was found to be 0.0182. Regarding “TAGCCGACTTGGGTTCTAACCTGTTGCTT (site TAGACGACTAA)”, the “recombinant barcode read abundance (log10)” value is 0.131.

For the sequence “TAGCCGACTTGGGTTCTAACCTGTTGCTT (site TAGCCGACTAA)”, the “recombinant barcode read abundance (log10)” value stood at 0.999. Regarding “TAGCCGACTTGGGTTCTAACCTGTTGCTT (site TAGGCGACTAA)”, the “recombinant barcode read abundance (log10)” value was 0.309. For “TAGCCGACTTGGGTTCTAACCTGTTGCTT (site TAGTCGACTAA)”, the “recombinant barcode read abundance (log10)” value was 0.242. As for “TAGCCGTCTTGGGTTCTAACCTGTTGCAC (site TAGACGACTGT)”, the figure is 0.0911; as for “TAGCCGTCTTGGGTTCTAACCTGTTGCAC (site TAGCCGTCTGT)”, 1.4. In the case of “TAGCCTTCTTGGGTTCTAACCTGTTGCTG (site TAGCCTTCTCA)”, the “recombinant barcode read abundance (log10)” value came to 1.02. Take “TAGCCTTCTTGGGTTCTAACCTGTTGCTG (site TAGCCTTCTTA)”: the “recombinant barcode read abundance (log10)” value was determined as 0.252. On to “TAGCTAGCTTGGGTTCTAACCTGTTGCGT (site GCTTACCCTTA)”, for which the “recombinant barcode read abundance (log10)” value came out at 0.0618. On to “TAGCTAGCTTGGGTTCTAACCTGTTGCGT (site TAGCTAGCTAC)”, for which the “recombinant barcode read abundance (log10)” value came to 1.62. In the case of “TAGCTCACTTGGGTTCTAACCTGTTGCAT (site TAGATCACTAT)” it was 0.0546. Take “TAGCTCACTTGGGTTCTAACCTGTTGCAT (site TAGCTCACTAT)”: the “recombinant barcode read abundance (log10)” value is 1.17. With “TAGCTCACTTGGGTTCTAACCTGTTGCAT (site TAGGTCACTAT)”, the “recombinant barcode read abundance (log10)” value amounted to 0.181.

As to “TAGCTCACTTGGGTTCTAACCTGTTGCAT (site TAGTTCACTAT)”, the “recombinant barcode read abundance (log10)” value was determined as 0.307. As for “TAGGAACCTTGGGTTCTAACCTGTTGCCT (site AAGGAACCTAG)”, the “recombinant barcode read abundance (log10)” value came out at 0.7. As for “TAGGAACCTTGGGTTCTAACCTGTTGCCT (site CAGGAACCTAG)”, the figure is 0.649; as for “TAGGAACCTTGGGTTCTAACCTGTTGCCT (site GAGGAACCTAG)”, 0.0651. As for “TAGGAACCTTGGGTTCTAACCTGTTGCCT (site TAGGAACCTAG)”, the “recombinant barcode read abundance (log10)” value was determined as 2.63. Regarding “TAGGACACTTGGGTTCTAACCTGTTGCCA (site TAGGACACTTG)”, the “recombinant barcode read abundance (log10)” value was 1.86. On to “TAGGACACTTGGGTTCTAACCTGTTGCCA (site TCGGATACTTG)”, for which the “recombinant barcode read abundance (log10)” value was 0.198. Consider “TAGGACACTTGGGTTCTAACCTGTTGCGT (site TAGGAAACTAC)”, for which the “recombinant barcode read abundance (log10)” value came out at 0.378. As for “TAGGACACTTGGGTTCTAACCTGTTGCGT (site TAGGACACTAC)”, the figure is 2.8. For the sequence “TAGGACACTTGGGTTCTAACCTGTTGCGT (site TAGGAGACTAC)”, the “recombinant barcode read abundance (log10)” value is 0.1. “TAGGACACTTGGGTTCTAACCTGTTGCGT (site TAGGATACTAC)”: the “recombinant barcode read abundance (log10)” value is 0.295. In the case of “TAGGACGCTTGGGTTCTAACCTGTTGCCT (site TAAGACGCTAG)” it was 1.76; in that of “TAGGACGCTTGGGTTCTAACCTGTTGCCT (site TACGACGCTAG)”, 0.114; in that of “TAGGACGCTTGGGTTCTAACCTGTTGCCT (site TAGGACGCTAG)”, 2.53. In the case of “TAGGACGCTTGGGTTCTAACCTGTTGCCT (site TATGACGCTAG)” it was 0.286; in that of “TAGGATGCTTGGGTTCTAACCTGTTGCGT (site TAGGATGCTAC)”, 2.66; in that of “TAGGATGCTTGGGTTCTAACCTGTTGCGT (site TAGGATTCTAC)”, 0.248. “TAGGCCACTTGGGTTCTAACCTGTTGCAT (site TAGGCCACTAA)”: the “recombinant barcode read abundance (log10)” value was found to be 0.071.

As to “TAGGCCACTTGGGTTCTAACCTGTTGCAT (site TAGGCCACTAC)”, the “recombinant barcode read abundance (log10)” value amounted to 0.0809. With “TAGGCCACTTGGGTTCTAACCTGTTGCAT (site TAGGCCACTAG)”, the “recombinant barcode read abundance (log10)” value stood at 0.294.

Regarding “TAGGCCACTTGGGTTCTAACCTGTTGCAT (site TAGGCCACTAT)”, the “recombinant barcode read abundance (log10)” value turned out to be 1.39. Consider “TAGGCCACTTGGGTTCTAACCTGTTGCGT (site TAGGCCACTAA)”, for which the “recombinant barcode read abundance (log10)” value amounted to 0.522.
